Tests used:
Type in all cases: cell-based
[1] = tested on: NCI-H2052 mesothelioma cell line; assay: Mesothelioma cell line proliferation assay, NCI-H2052; settings: NCI-H2052, 6 days with compound, cell viability by ATPlite
Method: (§1) Mesothelioma cell lines, NCI-H226 and NCI-H2052 (all sourced from the ATCC cell culture collection) are plated in 96-well plates (Corning® 96 Well White Polystyrene Microplate clear flat bottom, white polystyrene (TC-Treated)), at 1500 cells/well in full medium (RPMI 1640 ATCC modification with L-glutamine, HEPES, Phenol Red, Sodium Pyruvate, High glucose, Low sodium bicarbonate and 10% fetal bovine serum). Cells are incubated overnight at 37° C. in an incubator with 5% CO2. Then compounds, dissolved in DMSO, are added in dose-response. Cells are incubated with compound dilutions for another 6 days at 37° C. in an incubator with 5% CO2. Cell viability is quantitated using the ATPlite kit (Perkin-Elmer) and the luminescence is read-out using an Envision instrument (Perkin-Elmer). The amount of relative light units produced using the ATPlite kit is used to calculated percent of inhibition.
(§2) The activities of example compounds tested are depicted in the table below. The activity ranges A, B and C refer to EC50 values in the mesothelioma cell line proliferation assay as described as follows: “A”: EC50 <1 μM; “B” : 1 μM EC50 ≤10 μM and “C” : EC50 >10 μM. NT: not tested.

[2] = tested on: NCI-H226 mesothelioma cell line; assay: Mesothelioma cell line proliferation assay, NCI-H226; settings: NCI-H226, 6 days with compound, cell viability by ATPlite
Method: as §1, §2

[3] = tested on: YAP/TAZ-TEAD transcription; assay: Reporter gene assay for measuring the inhibition of YAP/TAZ-TEAD transcription (TEAD-responsive element luciferase reporter in Hek293T cells); settings: Hek293T cells transiently transfected with TEAD-responsive element luciferase reporter, 24 hours incubation
Procedure, shortened: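 Hek293T cells transiently transfected with TEAD-responsive luciferase reporter, exposed to compound for 24 h at 37° C/5% CO2, then read by luminescence. Percent inhibition normalized to vehicle (0%) and positive control inhibitor (100%); EC50 reported as activity ranges.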

## C=CC(=O)NCC1CN(c2ccc(OC(F)(F)F)cc2F)c2ccnn2C1 (single isomer, unassigned) [Cpd. No. 019-En1, (R)- or (S)-N-((4-(2-fluoro-4-(trifluoromethoxy)phenyl)-4,5,6,7-tetrahydropyrazolo[1,5-a]pyrimidin-6-yl)methyl)acrylamide]
[1]
  EC50: < 1000 nM
[2]; Homo sapiens, NCI-H226, 144 h
  EC50: < 1000 nM
[3]; Homo sapiens, HEK-293T, 24 h
  EC50: < 1000 nM

## C=CC(=O)NCC1CN(c2ccc(Cl)cc2)c2ccnn2C1 (stereo not drawn) [Cpd. No. 005, N-((4-(4-chlorophenyl)-4,5,6,7-tetrahydropyrazolo[1,5-a]pyrimidin-6-yl)methyl)acrylamide]
[1]; Homo sapiens, NCI-H2052, 144 h
  EC50: < 1000 nM
[2]; Homo sapiens, NCI-H226, 144 h
  EC50: < 1000 nM
[3]; Homo sapiens, HEK-293T, 24 h
  EC50: < 1000 nM

## C=CC(=O)NCC1CN(c2ccc(C(F)(F)F)cc2F)c2ccnn2C1 (single isomer, unassigned) [Cpd. No. 016-En1, (R)- or (S)-N-((4-(2-fluoro-4-(trifluoromethyl)phenyl)-4,5,6,7-tetrahydropyrazolo[1,5-a]pyrimidin-6-yl)methyl)acrylamide]
[1]
  EC50: < 1000 nM
[2]
  EC50: < 1000 nM
[3]
  EC50: < 1000 nM

## C=CC(=O)NCC1CNc2c(CC#Cc3ccccc3)cnn2C1 (stereo not drawn) [Cpd. No. 059, N-((3-(3-phenylprop-2-yn-1-yl)-4,5,6,7-tetrahydropyrazolo[1,5-a]pyrimidin-6-yl)-methyl)acrylamide]
[1]; Homo sapiens, NCI-H2052, 144 h
  EC50: > 10000 nM
[2]; Homo sapiens, NCI-H226, 144 h
  EC50: > 10000 nM
[3]; Homo sapiens, HEK-293T, 24 h
  EC50: < 1000 nM

## C=CC(=O)NCC1CN(c2ccc(C(C)(C)C)cc2)c2ccnn2C1 (single isomer, unassigned) [Cpd. No. 014-En1, (R)- or (S)-N-((4-(4-(tert-butyl)phenyl)-4,5,6,7-tetrahydropyrazolo[1,5-a]pyrimidin-6-yl)methyl)acrylamide]
[1]; Homo sapiens, NCI-H2052, 144 h
  EC50: < 1000 nM
[2]; Homo sapiens, NCI-H226, 144 h
  EC50: < 1000 nM
[3]; Homo sapiens, HEK-293T, 24 h
  EC50: < 1000 nM

## C=CC(=O)NC1CN(c2ccc(C(F)(F)F)cc2F)c2ccnn2C1 (single isomer, unassigned) [Cpd. No. 065-En1, (R)- or (S)-N-(4-(2-fluoro-4-(trifluoromethyl)phenyl)-4,5,6,7-tetrahydropyrazolo[1,5-a]pyrimidin-6-yl)acrylamide]
[1]; Homo sapiens, NCI-H2052, 144 h
  EC50: < 1000 nM
[2]; Homo sapiens, NCI-H226, 144 h
  EC50: < 1000 nM
[3]; Homo sapiens, HEK-293T, 24 h
  EC50: < 1000 nM

## C=CC(=O)NCC1CN(c2ccc(C(F)(F)F)cn2)c2ccnn2C1 (single isomer, unassigned) [Cpd. No. 008-En2, (R)- or (S)-N-((4-(5-(trifluoromethyl)pyridin-2-yl)-4,5,6,7-tetrahydropyrazolo[1,5-a]pyrimidin-6-yl)methyl)acrylamide]
[1]
  EC50: < 1000 nM
[2]
  EC50: < 1000 nM
[3]
  EC50: < 1000 nM

## C=CC(=O)NCC1CN(c2ccc(C(F)(F)F)cc2F)c2ccnn2C1 (stereo not drawn) [Cpd. No. 016, N-((4-(2-fluoro-4-(trifluoromethyl)phenyl)-4,5,6,7-tetrahydropyrazolo[1,5-a]pyrimidin-6-yl)methyl)acrylamide]
[1]
  EC50: < 1000 nM
[2]; Homo sapiens, NCI-H226, 144 h
  EC50: < 1000 nM
[3]; Homo sapiens, HEK-293T, 24 h
  EC50: < 1000 nM

## C=CC(=O)NCC1Cc2nn(C(F)F)cc2N(c2ccc(C(F)(F)F)cc2)C1 (single isomer, unassigned) [Cpd. No. 085-En2, (R)- or (S)-N-((2-(difluoromethyl)-4-(4-(trifluoromethyl)phenyl)-4,5,6,7-tetrahydro-2H-pyrazolo[4,3-b]pyridin-6-yl)methyl)acrylamide]
[1]; Homo sapiens, NCI-H2052, 144 h
  EC50: < 1000 nM
[2]; Homo sapiens, NCI-H226, 144 h
  EC50: < 1000 nM
[3]; Homo sapiens, HEK-293T, 24 h
  EC50: < 1000 nM

## C=CC(=O)NCC1CN(c2ccc(S(F)(F)(F)(F)F)cc2)c2ccnn2C1 (single isomer, unassigned) [Cpd. No. 023-En2, (R)- or (S)-N-((4-(4-(pentafluoro-l6-sulfaneyl)phenyl)-4,5,6,7-tetrahydropyrazolo[1,5-a]pyrimidin-6-yl)methyl)acrylamide]
[1]
  EC50: < 1000 nM
[2]
  EC50: < 1000 nM
[3]
  EC50: < 1000 nM

## C=CC(=O)NCC1CN(c2ccc(OC(F)F)cc2)c2ccnn2C1 (single isomer, unassigned) [Cpd. No. 012-En2, (R)- or (S)-N-((4-(4-(difluoromethoxy)phenyl)-4,5,6,7-tetrahydropyrazolo[1,5-a]pyrimidin-6-yl)methyl)acrylamide]
[1]
  EC50: > 10000 nM
[2]
  EC50: < 1000 nM
[3]
  EC50: < 1000 nM

## C=CC(=O)NCC1CN(c2ccc(S(F)(F)(F)(F)F)cc2)c2ccnn2C1 (single isomer, unassigned) [Cpd. No. 023-En1, (R)- or (S)-N-((4-(4-(pentafluoro-l6-sulfaneyl)phenyl)-4,5,6,7-tetrahydropyrazolo[1,5-a]pyrimidin-6-yl)methyl)acrylamide]
[1]
  EC50: < 1000 nM
[2]
  EC50: < 1000 nM
[3]
  EC50: < 1000 nM

## C=CC(=O)NC[C@@H]1CN(Cc2ccccc2)c2ccnn2C1 (single isomer, unassigned) [Cpd. No. 049-En1, (R)- or (S)-((4-benzyl-4,5,6,7-tetrahydropyrazolo[1,5-a]pyrimidin-6-yl)methyl)acrylamide]
[1]
  EC50: 1000 to 10000 nM
[2]
  EC50: 1000 to 10000 nM
[3]
  EC50: > 20000 nM

## C=CC(=O)NCC1Cc2nn(C)cc2N(c2ccc(OC(F)(F)F)cc2)C1 (stereo not drawn) [Cpd. No. 071, N-((2-methyl-4-(4-(trifluoromethoxy)phenyl)-4,5,6,7-tetrahydro-2H-pyrazolo[4,3-b]pyridin-6-yl)methyl)acrylamide]
[1]; Homo sapiens, NCI-H2052, 144 h
  EC50: < 1000 nM
[2]; Homo sapiens, NCI-H226, 144 h
  EC50: < 1000 nM
[3]; Homo sapiens, HEK-293T, 24 h
  EC50: < 1000 nM

## C=CC(=O)NCC1CN(c2ccc(OC(F)F)cc2)c2ccnn2C1 (stereo not drawn) [Cpd. No. 012, N-((4-(4-(difluoromethoxy)phenyl)-4,5,6,7-tetrahydropyrazolo[1,5-a]pyrimidin-6-yl)methyl)acrylamide]
[1]
  EC50: < 1000 nM
[2]; Homo sapiens, NCI-H226, 144 h
  EC50: < 1000 nM
[3]; Homo sapiens, HEK-293T, 24 h
  EC50: < 1000 nM

## C=CC(=O)NCC1Cc2c(cnn2C)N(c2ccc(C(F)(F)F)cc2)C1 (stereo not drawn) [Cpd. No. 068, N-((1-methyl-4-(4-(trifluoromethyl)phenyl)-4,5,6,7-tetrahydro-1H-pyrazolo[4,3-b]pyridin-6-yl)methyl)acrylamide]
[1]; Homo sapiens, NCI-H2052, 144 h
  EC50: < 1000 nM
[2]; Homo sapiens, NCI-H226, 144 h
  EC50: < 1000 nM
[3]; Homo sapiens, HEK-293T, 24 h
  EC50: < 1000 nM

## C#CC(=O)NCC1CN(c2ccc(C(F)(F)F)cc2)c2ccnn2C1 (stereo not drawn) [Cpd. No. 038, N-((4-(4-(trifluoromethyl)phenyl)-4,5,6,7-tetrahydropyrazolo[1,5-a]pyrimidin-6-yl)methyl)propiolamide]
[1]; Homo sapiens, NCI-H2052, 144 h
  EC50: < 1000 nM
[2]; Homo sapiens, NCI-H226, 144 h
  EC50: 1000 to 10000 nM
[3]; Homo sapiens, HEK-293T, 24 h
  EC50: < 1000 nM

## FC(F)(F)c1ccc(N2CC(C3CC(Br)=NO3)Cn3nccc32)cc1 (single isomer, unassigned) [Cpd. No. 086-Dia2, 3-bromo-5-(4-(4-(trifluoromethyl)phenyl)-4,5,6,7-tetrahydropyrazolo[1,5-a]pyrimidin-6-yl)-4,5-dihydroisoxazole]
[1]
  EC50: < 1000 nM
[2]
  EC50: < 1000 nM
[3]
  EC50: < 1000 nM

## C=CC(=O)NCC1CN(c2ccc(C(F)(F)F)cc2)c2cc(C(F)(F)F)nn2C1 (stereo not drawn) [Cpd. No. 034, N-((2-(trifluoromethyl)-4-(4-(trifluoromethyl)phenyl)-4,5,6,7-tetrahydropyrazolo[1,5-a]pyrimidin-6-yl)methyl)acrylamide]
[1]; Homo sapiens, NCI-H2052, 144 h
  EC50: < 1000 nM
[2]; Homo sapiens, NCI-H226, 144 h
  EC50: < 1000 nM
[3]; Homo sapiens, HEK-293T, 24 h
  EC50: < 1000 nM

## C=CC(=O)NCC1CN(c2ccc(C(F)(F)F)cc2F)c2ccnn2C1 (single isomer, unassigned) [Cpd. No. 016-En2, (R)- or (S)-N-((4-(2-fluoro-4-(trifluoromethyl)phenyl)-4,5,6,7-tetrahydropyrazolo[1,5-a]pyrimidin-6-yl)methyl)acrylamide]
[1]
  EC50: > 10000 nM
[2]
  EC50: < 1000 nM
[3]
  EC50: < 1000 nM

## C=CC(=O)NCC1CN(c2ccc(SC(F)(F)F)cc2)c2ccnn2C1 (single isomer, unassigned) [Cpd. No. 020-En2, (R)- or (S)-N-((4-(4-((trifluoromethyl)thio)phenyl)-4,5,6,7-tetrahydropyrazolo[1,5-a]pyrimidin-6-yl)methyl)acrylamide]
[1]
  EC50: 1000 to 10000 nM
[2]
  EC50: > 10000 nM
[3]
  EC50: < 1000 nM

## C=CC(=O)NCC1CN(c2ccc(C(C)C)cc2)c2ccnn2C1 (single isomer, unassigned) [Cpd. No. 013-En2, (R)- or (S)-N-((4-(4-ispropylphenyl)-4,5,6,7-tetrahydropyrazolo[1,5-a]pyrimidin-6-yl)methyl)acrylamide]
[1]
  EC50: 1000 to 10000 nM
[2]
  EC50: < 1000 nM
[3]
  EC50: < 1000 nM

## C=CC(=O)NCC1CN(c2ccc(C(F)(F)F)cn2)c2ccnn2C1 (single isomer, unassigned) [Cpd. No. 008-En1, (R)- or (S)-N-((4-(5-(trifluoromethyl)pyridin-2-yl)-4,5,6,7-tetrahydropyrazolo[1,5-a]pyrimidin-6-yl)methyl)acrylamide]
[1]; Homo sapiens, NCI-H2052, 144 h
  EC50: < 1000 nM
[2]; Homo sapiens, NCI-H226, 144 h
  EC50: < 1000 nM
[3]; Homo sapiens, HEK-293T, 24 h
  EC50: < 1000 nM

From patent publication US20230279016A1, “Tetrahydropyrazolopyrimidines and Related Analogs for Inhibiting YAP/TAZ-TEAD” (THE KATHOLIEKE UNIVERSITEIT LEUVEN, priority 2021, published 2023)
